Data published in patent US8192750B2, “Pharmaceutical composition for the treatment of otomycosis” (priority 2006, dated 2012).
“Also recorded” adds a separate entry of the source.

Experiments:
[1] = solubility of griseofulvin in different solvents; format: physicochemical; settings: mixtures with carriers
[2] = cited from earlier work

## COC1=CC(=O)C[C@@H](C)[C@]12Oc1c(Cl)c(OC)cc(OC)c1C2=O [griseofulvin, Griseofulvin]
[1]
  Solubility of griseofulvin in different solvents: higher in admixture with high molecular weight substances, such as herbal agents (e.g. tea tree oil), but not in admixtures with saccharides or alcohol; also recorded: higher in mixtures with high molecular weight carriers such as herbal agents, but not with saccharides or alcohol
[2]
  solubility in water: insoluble in water
